Test results: US20230131501A1, “THERAPEUTIC USES OF INHIBITORS OF THE RNA-BINDING PROTEIN HuR” (University of Kansas, priority 2020, published 2023)
“Also recorded” adds a separate entry of the source.

Experiments:
normal cell line WI-38 = assay: Cytotoxicity assay, normal cell line; assay type: cell-based
Experimental: The cytotoxicity of the tested compounds in several cancer cell lines (HCT116 β/w, MIAPaCa-2, and MDA-MB-231) was determined by a cytotoxicity assay, where the results are provided in Table 1. Cells were seeded in 96-well culture plates (5,000 cells/well) and treated with titrated compounds in triplicate. After 96 h incubation, cell growth medium was removed and proliferation reagent WST-8 (Sigma) was added to each well and incubated at 37° C. for 1-3 h. Absorbance was then measured with a plate reader at 450 nm with correction at 650 nm. The results were expressed as the percentage of absorbance of treated wells versus that of vehicle control. IC50, the drug concentration causing 50% growth inhibition, was calculated via sigmoid curve fitting using GraphPad Prism 5.0.
The assay was then utilized to assess cytotoxicity of KH-3 against an expanded panel of cell lines (including normal cell line WI-38), where FIGS. 4A-4C provide the results.

[1] = molecular target: T1, HuR protein bound to Msi1-Bi (Homo sapiens, UniProt Q15717); assay: Pull-down assay #1, RNA immunoprecipitation with biotinylated Msi1 ARE oligo; assay type: cell-based; conditions: cytoplasmic lysates of treated cells with HuR overexpression
T1 construct: endogenous in cells
T1 sequence (Q15717 2-326 limits assumed): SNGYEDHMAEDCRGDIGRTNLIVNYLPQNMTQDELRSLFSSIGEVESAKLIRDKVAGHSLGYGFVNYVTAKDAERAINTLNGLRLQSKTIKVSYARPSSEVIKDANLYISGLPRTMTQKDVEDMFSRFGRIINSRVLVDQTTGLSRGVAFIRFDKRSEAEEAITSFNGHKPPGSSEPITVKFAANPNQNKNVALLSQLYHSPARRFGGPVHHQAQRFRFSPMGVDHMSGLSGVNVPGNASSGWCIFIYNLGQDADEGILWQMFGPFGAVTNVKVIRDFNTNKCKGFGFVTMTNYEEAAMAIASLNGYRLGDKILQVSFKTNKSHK
Experimental: Cells with HuR overexpression were treated with compounds, then the cell cytoplasmic lysates were collected using NE-PER Nuclear and Cytoplasmic Extraction Kit (Thermo Scientific), and subsequently to the cell cytoplasmic lysates were added the biotinylated target ARE oligo from Msi1 mRNA (Msi1-Bi). Following this, streptavidin beads were added to pull down HuR protein bound to Msi1-Bi. Compounds of the present technology blocked the HuR pull-down by the biotinylated ARE oligo, illustrating inhibition of the Hur-mRNA interaction. Unlabeled target AREs were used as positive control. FIG. 6A provides results with KH-3, illustrating KH-3 blocked Msi1-Bi RNA mediated pull-down of HuR protein up to 24%.

[2] = test system: 2LMP subclone of MDA-MB-231, lung metastasis; assay: Experimental metastasis model (2LMP, lung metastasis); assay type: in vivo, mice
Experimental: For the experimental metastasis model, Dr. Marc Lippman kindly gifted a 2LMP subclone that was generated from MDA-MB-231 and that formed lung metastasis in mice. 0.5×10^6 2LMP cells stably expressing luciferase in 0.3 mL DMEM were intravenously injected into tail veins of mice. Immediately following injection, mice were imaged by bioluminescence to assure wide distribution and quality of the initial injection. The mice were then randomized into two groups and treated with 50 mg/kg KH-3 or vehicle control via intraperitoneal injection five times per week for five weeks. Bioluminescence imaging was taken weekly to monitor the metastasis burden at lung. […] Imaging was then taken twice a week after first detectable signaling at lung. All animal experiments were carried out according to the protocol approved by the Institutional Animal Use and Care Committee at the University of Kansas.

[3] = test system: hTERT-HPNE (non-cancerous human pancreatic ductal epithelial cell line); assay: MTT cell viability, non-cancerous cells; assay type: cell-based; conditions: 48 hours
Experimental: Pancreatic cancer cell lines were obtained from the American Type Culture Collection (Manassas, Va.). hTERT-HPNE cells (immortalized human pancreatic ductal epithelial cells) were donated by Dr. Anant at the University of Kansas Medical Center. MTT assay was used for cell viability detection, with starting cell number in 96-well plate of 3000/well (for 72 h treatment) or 5000/well (for 48 h treatment).
Pancreatic cancer cell lines with different endogenous HuR expression levels were treated with serial concentrations of KH-3 for 48 hours. KH-3 induced cytotoxicity in pancreatic cancer cells, with the sensitivity correlated to endogenous HuR protein levels (FIG. 30). MIA PaCa2 cells have the highest HuR protein abundance among the tested cell lines and were the most sensitive to HuR treatment (IC50=5 μM). […] BxPC-3 cells, another human pancreatic cancer cell line, have HuR expression level in the middle, and the IC50 of KH-3 was in the middle (10 μM). A non-cancerous human pancreatic ductal epithelial cell line (hTERT-HPNE) was tested under the same conditions. hTERT-HPEN cells have the lowest abundance of HuR protein compared to the cancer cells, and the cytotoxicity of KH-3 to these cells were minimal (IC50>>40 μM). There is an inverse correlation in the tested cell lines between the HuR expression levels and the sensitivity to KH-3 treatment (FIG. 30) (R=−0.71 by Pearson Tests).

[4] = test system: PANC-1-Luc orthotopic pancreatic xenografts; assay: Orthotopic pancreatic tumor model (PANC-1-Luc); assay type: in vivo, nude mice
Experimental: All animal procedures were approved by the Institutional Animal Care and Use Committee at the University of Kansas Medical Center under the protocol #2015-2247. Dose of KH-3 was pre-determined by a pilot experiment to be 100 mg/kg body weight, intraperitoneal injection (IP), three times weekly. All treatment in this pancreatic cancer section of the present disclosure concerning KH-3 used this dose regimen.
An orthotopic pancreatic tumor model was used to determine treatment effects of KH-3. Luciferase-expressing PANC-1 cells (PANC-1-Luc, multi-clones) were established by the Preclinical Proof of Concept Core Laboratory (University of Kansas Medical Center, Kansas City, Kans.). A small subcostal laparotomy was performed in female Ncr nu/nu mice to expose the pancreas, and 2×10^5 PANC-1-Luc cells in 50 μL PBS were injected into the tail of pancreas. […]
The in vivo tumor inhibitory effects of KH-3 were tested in a highly metastatic orthotopic model of pancreatic cancer. […] Tumor progression is monitored by weekly imaging using an IVIS Spectrum imaging system (Caliper Life Sciences). […] After 2 weeks, tumor development in the pancreas of the recipient mice was detected by imaging. […] The dose regimen of KH-3 was determined by a pilot dose-finding experiment to be 100 mg/kg, intraperitoneal injection (IP), three times (3×) weekly, which was the highest dose without showing toxicity. […]

[5] = 50 mg/kg i.p. five times per week for five weeks

## CC(C)(C)c1ccc(S(=O)(=O)Nc2ccc3sc(/C=C/C(=O)NO)cc3c2)cc1 [KH-3]
Normal cell line WI-38
  concentration until which not cytotoxic: about 100 μM
[1]
  blocking of Msi1-Bi RNA mediated pull-down of HuR protein: up to 24%
[2]; [5]
  median survival time: 81 days
  median time to initiation of pulmonary metastases: 71 days
  side effects: minor diarrhea in some mice; also recorded: Some mice had swollen abdomens starting the fourth week of treatment
[2]; 50 mg/kg i.p. five times per week for five weeks, 7/9
  metastasis rate (mice with pulmonary metastases at the end of experiment): 77.7%
[2]; first 43 days of the experiment
  weight gain: gained weight similar to those in control group
[3]
  IC50: > 40 µM
[4]; 100 mg/kg IP 3× weekly, 5 weeks, 1/10
  mice that developed metastasis (liver): 10%
[4]; pilot dose-finding experiment, IP, three times weekly
  highest dose without showing toxicity: 100 mg/kg
